Assay results: ChEMBL document CHEMBL5126519, “Tuberculosis drug discovery: Progression and future interventions in the wake of emerging resistance” (Eur J Med Chem, 2022)
Converted amounts (≈) assume the structure as drawn.

Tests used:
[1] = system: Mycobacterium tuberculosis; assay: Antimycobacterial activity against Mycobacterium tuberculosis expressing GFP; format: functional
[2] = system: Mycobacterium tuberculosis; assay: Antimycobacterial activity against Mycobacterium tuberculosis H37Rv by MABA assay; format: functional
[3] = system: Mycobacterium tuberculosis; assay: Antimycobacterial activity against drug-sensitive Mycobacterium tuberculosis; format: functional
[4] = system: Mycobacterium tuberculosis; assay: Antimycobacterial activity against Mycobacterium tuberculosis; format: functional
[5] = system: Mycobacterium tuberculosis; assay: Antimycobacterial activity against Mycobacterium tuberculosis H37Rv by microplate alamar blue assay; format: functional
[6] = system: Mycobacterium tuberculosis; assay: Antimycobacterial activity against Mycobacterium tuberculosis H37Rv by agar dilution method; format: functional
[7] = system: Mycobacterium tuberculosis; assay: Antimycobacterial activity against drug-susceptible Mycobacterium tuberculosis H37Rv; format: functional
[8] = system: Mycobacterium tuberculosis; assay: Antimycobacterial activity against Mycobacterium tuberculosis infected in mouse; format: functional
[9] = Inhibition of mammalian mitochondrial protein synthesis; format: mitochondria, Mitochondria
[10] = system: Mycobacterium tuberculosis; assay: Antimycobacterial activity against non-replicating Mycobacterium tuberculosis H37Rv by time kill kinetic assay; format: functional

## COCCNC(=O)c1cn(Cc2ccc(F)cc2)c2ccc([N+](=O)[O-])cc2c1=O
[1]
  MIC: < 0.244 µM

## Cc1c(C(=O)OCc2ccccc2)[n+]([O-])c2cc(F)c(-n3cncn3)cc2[n+]1[O-]
[2]
  MIC: ≤ 0.25 µg/mL

## CCNC(=O)Nc1nc2nc(-c3cnc(C(C)(C)O)nc3)c(F)c([C@H]3CCCO3)c2[nH]1
[3]
  MIC: 0.03 µg/mL (≈ 0.0699 µM)

## Cc1cc(/C=C/c2ccc3cc(N(C)C)ccc3[n+]2C)c(C)n1-c1ccccc1.Cc1cc(/C=C/c2ccc3cc(N(C)C)ccc3[n+]2C)c(C)n1-c1ccccc1.O=C(O)c1cc2ccccc2c(Cc2c(O)c(C(=O)O)cc3ccccc23)c1O
[3]
  MIC99: 1.55 µg/mL

## O[C@@H](c1cc(C(F)(F)F)nc2c(C(F)(F)F)cccc12)[C@H]1CCCCN1 [(S,R)-MEFLOQUINE]
[4]
  MIC: 10 µM

## CC(C)(C)NCC(O)CSc1nc(-c2ccc(C(N)=O)s2)cs1 (stereo not drawn) [AROTINOLOL]
[5]
  MIC: 3.12 µM (≈ 1.16 µg/mL)

## COc1nc2ccc(Br)cc2cc1[C@@H](c1ccccc1)[C@@](O)(CCN(C)C)c1cccc2ccccc12 [BEDAQUILINE]
[6]
  MIC: 0.015 µg/mL (≈ 0.027 µM)

## C[C@H]1COC2(CCN(c3nc(=O)c4cc(C(F)(F)F)cc([N+](=O)[O-])c4s3)CC2)O1 [BTZ-043]
[4]
  MIC: 0.001 µg/mL

## C[C@]1(COc2ccc(N3CCC(Oc4ccc(OC(F)(F)F)cc4)CC3)cc2)Cn2cc([N+](=O)[O-])nc2O1 [DELAMANID]
[7]
  MIC: 0.0005 µg/mL (≈ 0.000935 µM)

## CC1=NN(c2ccc(C)c(C)c2)C(=O)/C1=N\Nc1cccc(-c2cccc(C(=O)O)c2)c1O [ELTROMBOPAG]
[5]
  MIC: 6.25 µM (≈ 2.77 µg/mL)

## NC[C@H]1OB(O)c2c(OCCO)ccc(Cl)c21 [GANFEBOROLE]
[2]
  MIC: 0.08 µM
[8]
  ED99: 0.4 mg/kg

## CN(C)[C@@H]1C(O)=C(C(=O)NCNCCCC[C@H](N)C(=O)O)C(=O)[C@@]2(O)C(O)=C3C(=O)c4c(O)cccc4[C@@](C)(O)[C@H]3C[C@@H]12 [LYMECYCLINE]
[4]
  MIC: 166 µM

## O=c1nc(N2CCN(CC3CCCCC3)CC2)sc2c([N+](=O)[O-])cc(C(F)(F)F)cc12 [MACOZINONE]
[4]
  MIC: 0.00019 µg/mL

## COc1c(N2C[C@@H]3CCCN[C@@H]3C2)c(F)cc2c(=O)c(C(=O)O)cn(C3CC3)c12 [MOXIFLOXACIN]
[4]
  MIC: 1.1 µM

## CC(=O)Oc1ccccc1C(=O)Nc1ncc([N+](=O)[O-])s1 [NITAZOXANIDE]
[4]
  MIC: 33.2 µM

## O=[N+]([O-])c1cn2c(n1)OC[C@@H](OCc1ccc(OC(F)(F)F)cc1)C2 [PRETOMANID]
[3]
  MIC: 0.015 µg/mL (≈ 0.0418 µM)

## CC(C)=CCC/C(C)=C/CNCCNC1C2CC3CC(C2)CC1C3 (stereo not drawn) [SQ109]
[4]
  MIC: 0.78 µg/mL

## CC(=O)NC[C@H]1CN(c2ccc(N3CCSCC3)c(F)c2)C(=O)O1 [SUTEZOLID]
[4]
  MIC: 0.062 µg/mL

## COC(=O)NC[C@H]1CN(c2ccc(N3CC4(COC4)C3)c(F)c2)C(=O)O1 [TBI-223]
[9]
  IC50: > 74 µM

## CCc1nc2ccc(Cl)cn2c1C(=O)NCc1ccc(N2CCC(c3ccc(OC(F)(F)F)cc3)CC2)cc1 [TELACEBEC]
[4]
  MIC: 0.008 µg/mL

## CSc1ccc2c(c1)N(CCC1CCCCN1C)c1ccccc1S2 (stereo not drawn) [THIORIDAZINE]
[4]
  MIC: 19.6 µM

## COc1ccc(CCN(C)CCCC(C#N)(c2ccc(OC)c(OC)c2)C(C)C)cc1OC (stereo not drawn) [VERAPAMIL]
[10]
  MIC: 512 µM (≈ 233 µg/mL)
